Test results: patent US20210255193A1, “LYSINE REACTIVE PROBES AND USES THEREOF” (The Scripps Research Institute, priority 2017, published 2021)

How the values were obtained:
TPMT = molecular target: T1, TPMT (Homo sapiens, UniProt P51580); assay: direct labeling of recombinantly expressed proteins by gel-based ABPP (WT vs lysine mutant); type: binding; details: TPMT K32, KR mutant; 10 μM probe, 1 h
T1 construct: expressed in transfected cells; host or cells: HEK 293T
T1 sequence (P51580 1-245): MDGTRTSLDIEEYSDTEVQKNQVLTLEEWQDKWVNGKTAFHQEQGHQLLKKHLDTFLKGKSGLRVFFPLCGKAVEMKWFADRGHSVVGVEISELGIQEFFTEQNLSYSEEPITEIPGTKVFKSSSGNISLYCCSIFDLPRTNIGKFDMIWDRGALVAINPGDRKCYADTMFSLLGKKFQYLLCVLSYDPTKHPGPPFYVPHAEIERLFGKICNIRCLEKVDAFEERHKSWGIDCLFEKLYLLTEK

CARM1 = molecular target: T2, CARM1 (Mus musculus, UniProt Q9WVG6); assay: as above; type: binding; details: CARM1 K241, KR mutant; 10 μM probe, 1 h
T2 construct: FLAG; expressed in transfected cells; host or cells: HEK 293T
T2 sequence (Q9WVG6 1-608): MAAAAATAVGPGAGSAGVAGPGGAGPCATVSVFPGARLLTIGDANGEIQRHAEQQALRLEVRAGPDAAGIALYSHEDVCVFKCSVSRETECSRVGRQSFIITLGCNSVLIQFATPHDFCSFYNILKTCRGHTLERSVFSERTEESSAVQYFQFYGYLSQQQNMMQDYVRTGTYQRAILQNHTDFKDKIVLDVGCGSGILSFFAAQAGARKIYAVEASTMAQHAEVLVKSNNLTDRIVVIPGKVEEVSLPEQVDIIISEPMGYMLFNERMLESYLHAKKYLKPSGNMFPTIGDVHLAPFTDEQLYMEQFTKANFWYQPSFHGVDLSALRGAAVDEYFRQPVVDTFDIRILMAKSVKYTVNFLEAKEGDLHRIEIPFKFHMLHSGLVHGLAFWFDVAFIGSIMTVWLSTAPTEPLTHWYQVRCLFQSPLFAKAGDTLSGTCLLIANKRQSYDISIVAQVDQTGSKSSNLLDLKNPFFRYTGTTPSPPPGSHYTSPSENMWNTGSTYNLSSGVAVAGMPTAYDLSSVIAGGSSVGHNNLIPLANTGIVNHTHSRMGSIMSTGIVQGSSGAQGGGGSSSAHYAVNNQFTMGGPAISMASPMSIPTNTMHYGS

With `C#CCCC(=O)Oc1c(F)c(F)c(S(=O)(=O)[O-])c(F)c1F.[Na+]` [probe 1, reference compound] the “labeling of WT vs mutant protein by probe” value (TPMT) was “HD (the WT labeled more than the mutant (>4x difference quantified))” and the “labeling of WT vs mutant protein by probe” value (CARM1) was “HD (the WT labeled more than the mutant (>4x difference quantified))”.
For `C#CCCC(=O)Oc1c(F)c(F)c(F)c(F)c1F` [probe 6, Pentafluorophenyl 4-pentynoate], the “labeling of WT vs mutant protein by probe” value (TPMT) was “ND (the WT did not label more than the mutant (<2x difference quantified))” and the “labeling of WT vs mutant protein by probe” value (CARM1) was “ND (the WT did not label more than the mutant (<2x difference quantified))”.
In the case of `C#Cc1ccc(C(=O)Oc2c(F)c(F)cc(F)c2F)cc1` [probe 12, 2,3,5,6-Tetrafluorophenyl 4-ethynylbenzoate], the “labeling of WT vs mutant protein by probe” value (TPMT) is reported as “ND (the WT did not label more than the mutant (<2x difference quantified))” and the “labeling of WT vs mutant protein by probe” value (CARM1) is reported as “ND (the WT did not label more than the mutant (<2x difference quantified))”.
With `C#Cc1ccc(C(=O)Oc2c(F)c(F)c(F)c(F)c2F)cc1` [probe 13, Pentafluorophenyl 4-ethynylbenzoate] the “labeling of WT vs mutant protein by probe” value (TPMT) was “ND (the WT did not label more than the mutant (<2x difference quantified))” and the “labeling of WT vs mutant protein by probe” value (CARM1) was “ND (the WT did not label more than the mutant (<2x difference quantified))”.
`Cc1cc(C)n2c1C=C1C=CC(CCC(=O)Oc3c(F)c(F)c(S(=O)(=O)[O-])c(F)c3F)=[N+]1[B-]2(F)F.[Na+]` [probe 18, reference compound] was tested, and the “labeling of WT vs mutant protein by probe” value (TPMT) was “HD (the WT labeled more than the mutant (>4x difference quantified))” and the “labeling of WT vs mutant protein by probe” value (CARM1) was “PD (the WT labeled more than the mutant (>2x difference quantified))”.
